Columns and labels:
Assay in all cases: Ambit KinomeScan screening
Type in all cases: binding
Settings in all cases: CAL-130 10 μM
PAK1 = molecular target: T1, PAK1 (Homo sapiens, UniProt Q13153)
T1 construct: purchased Ambit (KinomeScan screening service)
Method in brief: (§1)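 Read-out is % of control binding: the tagged kinase retained on an immobilized bait ligand when CAL-130 is present at 10 μM. A lower percentage reflects stronger compound interaction, and anything over 35% counts as no hit.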

MINK = molecular target: T2, MINK (Homo sapiens, UniProt Q8N4C8)
T2 construct: unspecified tag ('tagged kinases'); purchased Ambit (KinomeScan screening)
Method in brief: as §1

STK39 = molecular target: T3, STK39 (Homo sapiens, UniProt Q9UEW8)
T3 construct: tag (kind not specified); purchased Ambit (KinomeScan screening service)
Method in brief: as §1

RPS6KA3 = molecular target: T4, RPS6KA3 (Homo sapiens, UniProt P51812)
T4 construct: unspecified tag (tagged kinase); purchased Ambit (KinomeScan screening)
Method in brief: as §1

TGFBR2 = molecular target: T5, TGFBR2 (Homo sapiens, UniProt P37173)
T5 construct: unspecified tag (tagged kinase); purchased Ambit (KinomeScan screening)
Method in brief: as §1

PIM2 = molecular target: T6, PIM2 (Homo sapiens, UniProt Q9P1W9)
T6 construct: unspecified tag; purchased Ambit (KinomeScan screening panel)
Method in brief: as §1

MST2 = molecular target: T7, MST2 (Homo sapiens, UniProt Q13188)
T7 construct: unspecified tag ('tagged kinases'); purchased Ambit (KinomeScan screening)
Method in brief: as §1

EPHB4 = molecular target: T8, EPHB4 (Homo sapiens, UniProt P54760)
T8 construct: purchased Ambit (KinomeScan screening service)
Method in brief: as §1

TIE2 = molecular target: T9, TIE2 (Homo sapiens, UniProt Q02763)
T9 construct: unspecified tag (tagged kinase); purchased Ambit (KinomeScan screening)
Method in brief: as §1

MAP3K3 = molecular target: T10, MAP3K3 (Homo sapiens, UniProt Q99759)
T10 construct: Ambit (KinomeScan screening)
Method in brief: as §1

HUNK = molecular target: T11, HUNK (Homo sapiens, UniProt P57058)
T11 construct: Ambit (KinomeScan screening)
Method in brief: as §1

MEK1 = molecular target: T12, MEK1 (Homo sapiens, UniProt Q02750)
T12 construct: purchased Ambit (KinomeScan screening)
Method in brief: as §1

SRMS = molecular target: T13, SRMS (Homo sapiens, UniProt Q9H3Y6)
T13 construct: tag, kind not specified; purchased Ambit (KinomeScan screening service)
Method in brief: as §1

GSK3B = molecular target: T14, GSK3B (Homo sapiens, UniProt P49841)
T14 construct: unspecified tag ('tagged kinases'); purchased Ambit (KinomeScan screening service)
Method in brief: as §1

CSNK1E = molecular target: T15, CSNK1E (Homo sapiens, UniProt P49674)
T15 construct: purchased Ambit (KinomeScan screening service)
Method in brief: as §1

PKAC-β = molecular target: T16, PKAC-β (Homo sapiens, UniProt P22694)
T16 construct: unspecified tag; purchased Ambit (KinomeScan screening panel)
Method in brief: as §1

OSR1 = molecular target: T17, OSR1 (Homo sapiens, UniProt O95747)
T17 construct: purchased Ambit (KinomeScan screening service)
Method in brief: as §1

PAK6 = molecular target: T18, PAK6 (Homo sapiens, UniProt Q9NQU5)
T18 construct: tag (kind not specified); purchased Ambit (KinomeScan screening service)
Method in brief: as §1

CLK2 = molecular target: T19, CLK2 (Homo sapiens, UniProt P49760)
T19 construct: purchased Ambit (KinomeScan screening service)
Method in brief: as §1

HCK = molecular target: T20, HCK (Homo sapiens, UniProt P08631)
T20 construct: unspecified tag ('tagged kinases'); purchased Ambit (KinomeScan screening service)
Method in brief: as §1

RPS6KA5 = molecular target: T21, RPS6KA5 (Homo sapiens, UniProt O75582)
T21 construct: tag, kind not specified; purchased Ambit (KinomeScan screening service)
Method in brief: as §1

ACVR1B = molecular target: T22, ACVR1B (Homo sapiens, UniProt P36896)
T22 construct: unspecified tag ("tagged kinases"); purchased Ambit (KinomeScan screening)
Method in brief: as §1

TYK2(JH1domain) = molecular target: T23, TYK2(JH1domain) (Homo sapiens, UniProt P29597)
T23 construct: TYK2(JH1domain); tag, kind not specified; purchased Ambit (KinomeScan screening service)
Method in brief: as §1

WEE2 = molecular target: T24, WEE2 (Homo sapiens, UniProt P0C1S8)
T24 construct: purchased Ambit (KinomeScan screening service)
Method in brief: as §1

ROS1 = molecular target: T25, ROS1 (Homo sapiens, UniProt P08922)
T25 construct: unspecified tag (tagged kinase); purchased Ambit (KinomeScan screening)
Method in brief: as §1

PCTK1 = molecular target: T26, PCTK1 (Homo sapiens, UniProt Q00536)
T26 construct: unspecified tag ('tagged kinases'); purchased Ambit (KinomeScan screening)
Method in brief: as §1

TAK1 = molecular target: T27, TAK1 (Homo sapiens, UniProt O43318)
T27 construct: tag (kind not specified); purchased Ambit (KinomeScan screening service)
Method in brief: as §1

TSSK1B = molecular target: T28, TSSK1B (Homo sapiens, UniProt Q9BXA7)
T28 construct: tag, kind not specified; purchased Ambit (KinomeScan screening service)
Method in brief: as §1

CDK5 = molecular target: T29, CDK5 (Homo sapiens, UniProt Q00535)
T29 construct: purchased Ambit (KinomeScan screening)
Method in brief: as §1

EPHA5 = molecular target: T30, EPHA5 (Homo sapiens, UniProt P54756)
T30 construct: purchased Ambit (KinomeScan screening service)
Method in brief: as §1

ADCK4 = molecular target: T31, ADCK4 (Homo sapiens, UniProt Q96D53)
T31 construct: purchased Ambit (KinomeScan screening)
Method in brief: as §1

ADCK3 = molecular target: T32, ADCK3 (Homo sapiens, UniProt Q8NI60)
T32 construct: purchased Ambit (KinomeScan screening)
Method in brief: as §1

NEK5 = molecular target: T33, NEK5 (Homo sapiens, UniProt Q6P3R8)
T33 construct: unspecified tag; purchased Ambit (KinomeScan screening panel)
Method in brief: as §1

[1] = molecular target: T34, EGFR(L747-E749DEL, A750P) (Homo sapiens, UniProt P00533, A750P/DEL747-749)
T34 construct: unspecified tag; purchased Ambit (KinomeScan screening service)
Method in brief: as §1

SgK110 = molecular target: T35, SgK110 (Homo sapiens, UniProt P0C264)
T35 construct: tag, kind not specified; purchased Ambit (KinomeScan screening service)
Method in brief: as §1

PRKCD = molecular target: T36, PRKCD (Homo sapiens, UniProt Q05655)
T36 construct: purchased Ambit (KinomeScan screening service)
Method in brief: as §1

Measured: Percent of Control Binding

T26 sequence (Q00536 whole entry): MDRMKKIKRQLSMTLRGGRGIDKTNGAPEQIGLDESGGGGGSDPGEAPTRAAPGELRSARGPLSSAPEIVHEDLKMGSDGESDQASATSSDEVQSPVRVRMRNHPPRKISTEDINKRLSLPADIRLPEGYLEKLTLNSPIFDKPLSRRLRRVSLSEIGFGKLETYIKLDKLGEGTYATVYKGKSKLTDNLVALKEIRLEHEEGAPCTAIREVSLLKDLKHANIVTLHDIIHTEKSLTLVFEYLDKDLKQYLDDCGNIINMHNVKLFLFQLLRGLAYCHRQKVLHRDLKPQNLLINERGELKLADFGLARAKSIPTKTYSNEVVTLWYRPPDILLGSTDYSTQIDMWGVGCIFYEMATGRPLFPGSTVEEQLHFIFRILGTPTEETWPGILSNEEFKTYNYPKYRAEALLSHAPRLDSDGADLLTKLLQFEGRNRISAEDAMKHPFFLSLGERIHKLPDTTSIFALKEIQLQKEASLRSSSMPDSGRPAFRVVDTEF
T23 sequence (P29597 897-1176 limits assumed): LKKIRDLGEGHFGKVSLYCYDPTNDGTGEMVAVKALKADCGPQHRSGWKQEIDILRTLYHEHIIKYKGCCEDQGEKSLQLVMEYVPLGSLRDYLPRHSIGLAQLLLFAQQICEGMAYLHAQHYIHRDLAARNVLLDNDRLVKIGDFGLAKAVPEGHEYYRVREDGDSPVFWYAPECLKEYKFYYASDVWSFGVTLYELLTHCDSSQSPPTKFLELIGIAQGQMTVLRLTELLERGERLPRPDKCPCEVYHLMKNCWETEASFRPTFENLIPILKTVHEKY
T7 sequence (Q13188 whole entry): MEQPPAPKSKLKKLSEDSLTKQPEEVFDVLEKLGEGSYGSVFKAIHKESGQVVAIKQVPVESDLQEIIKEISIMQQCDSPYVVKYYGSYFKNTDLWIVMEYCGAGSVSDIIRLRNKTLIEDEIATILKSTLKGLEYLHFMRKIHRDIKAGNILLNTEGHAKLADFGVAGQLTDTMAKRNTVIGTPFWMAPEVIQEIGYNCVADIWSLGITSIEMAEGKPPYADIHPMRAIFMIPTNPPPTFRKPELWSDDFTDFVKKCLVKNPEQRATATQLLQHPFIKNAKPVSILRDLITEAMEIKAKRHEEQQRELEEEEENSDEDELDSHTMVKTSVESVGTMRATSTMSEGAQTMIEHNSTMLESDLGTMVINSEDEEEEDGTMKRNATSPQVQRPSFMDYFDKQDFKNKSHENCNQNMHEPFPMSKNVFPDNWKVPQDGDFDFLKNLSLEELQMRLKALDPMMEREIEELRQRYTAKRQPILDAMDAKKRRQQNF
T20 sequence (P08631 whole entry): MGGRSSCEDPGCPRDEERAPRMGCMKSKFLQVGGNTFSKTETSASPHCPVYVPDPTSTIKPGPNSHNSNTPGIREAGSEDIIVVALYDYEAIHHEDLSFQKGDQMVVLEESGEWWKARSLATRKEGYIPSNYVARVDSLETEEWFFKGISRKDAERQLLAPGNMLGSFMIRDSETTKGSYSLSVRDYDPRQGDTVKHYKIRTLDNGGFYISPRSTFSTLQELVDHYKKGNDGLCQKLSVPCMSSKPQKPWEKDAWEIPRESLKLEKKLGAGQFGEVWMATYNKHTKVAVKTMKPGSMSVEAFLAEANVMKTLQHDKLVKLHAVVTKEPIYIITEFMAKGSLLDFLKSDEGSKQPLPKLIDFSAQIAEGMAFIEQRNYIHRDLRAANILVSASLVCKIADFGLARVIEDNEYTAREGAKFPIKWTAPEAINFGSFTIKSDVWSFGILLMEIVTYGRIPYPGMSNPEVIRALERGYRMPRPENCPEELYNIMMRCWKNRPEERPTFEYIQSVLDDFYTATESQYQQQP
T22 sequence (P36896 24-505): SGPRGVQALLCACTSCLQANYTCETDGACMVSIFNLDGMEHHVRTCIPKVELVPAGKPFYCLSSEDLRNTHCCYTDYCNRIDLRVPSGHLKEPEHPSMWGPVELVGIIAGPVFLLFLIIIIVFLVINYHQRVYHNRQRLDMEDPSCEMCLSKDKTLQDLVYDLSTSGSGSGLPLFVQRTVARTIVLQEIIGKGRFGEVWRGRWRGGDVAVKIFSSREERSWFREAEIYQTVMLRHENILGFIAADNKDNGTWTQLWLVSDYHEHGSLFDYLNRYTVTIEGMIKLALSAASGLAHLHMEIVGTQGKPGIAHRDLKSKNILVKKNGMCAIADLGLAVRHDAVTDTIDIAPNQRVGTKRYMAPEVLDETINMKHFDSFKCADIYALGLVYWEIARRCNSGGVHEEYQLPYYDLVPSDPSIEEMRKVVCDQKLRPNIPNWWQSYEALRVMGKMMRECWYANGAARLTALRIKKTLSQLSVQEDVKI
T11 sequence (P57058 whole entry): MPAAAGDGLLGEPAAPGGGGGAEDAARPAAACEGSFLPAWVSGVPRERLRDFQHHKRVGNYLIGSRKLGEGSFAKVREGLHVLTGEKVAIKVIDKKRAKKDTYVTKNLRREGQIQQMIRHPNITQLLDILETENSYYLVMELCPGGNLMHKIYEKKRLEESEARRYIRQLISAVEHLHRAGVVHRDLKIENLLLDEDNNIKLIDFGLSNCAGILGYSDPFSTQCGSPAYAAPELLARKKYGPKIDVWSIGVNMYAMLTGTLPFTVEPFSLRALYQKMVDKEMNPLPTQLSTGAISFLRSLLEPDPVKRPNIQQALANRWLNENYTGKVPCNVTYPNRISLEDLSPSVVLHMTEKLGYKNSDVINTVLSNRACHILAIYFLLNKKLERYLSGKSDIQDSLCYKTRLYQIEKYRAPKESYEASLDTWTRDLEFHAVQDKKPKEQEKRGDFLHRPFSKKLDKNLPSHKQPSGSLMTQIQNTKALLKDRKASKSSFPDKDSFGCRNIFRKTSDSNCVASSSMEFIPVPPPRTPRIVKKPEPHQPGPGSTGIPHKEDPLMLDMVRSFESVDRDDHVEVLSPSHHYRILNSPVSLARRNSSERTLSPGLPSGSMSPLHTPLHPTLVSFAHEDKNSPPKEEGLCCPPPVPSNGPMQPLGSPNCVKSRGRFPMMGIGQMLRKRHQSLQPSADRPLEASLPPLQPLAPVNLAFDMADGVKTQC
T17 sequence (O95747 whole entry): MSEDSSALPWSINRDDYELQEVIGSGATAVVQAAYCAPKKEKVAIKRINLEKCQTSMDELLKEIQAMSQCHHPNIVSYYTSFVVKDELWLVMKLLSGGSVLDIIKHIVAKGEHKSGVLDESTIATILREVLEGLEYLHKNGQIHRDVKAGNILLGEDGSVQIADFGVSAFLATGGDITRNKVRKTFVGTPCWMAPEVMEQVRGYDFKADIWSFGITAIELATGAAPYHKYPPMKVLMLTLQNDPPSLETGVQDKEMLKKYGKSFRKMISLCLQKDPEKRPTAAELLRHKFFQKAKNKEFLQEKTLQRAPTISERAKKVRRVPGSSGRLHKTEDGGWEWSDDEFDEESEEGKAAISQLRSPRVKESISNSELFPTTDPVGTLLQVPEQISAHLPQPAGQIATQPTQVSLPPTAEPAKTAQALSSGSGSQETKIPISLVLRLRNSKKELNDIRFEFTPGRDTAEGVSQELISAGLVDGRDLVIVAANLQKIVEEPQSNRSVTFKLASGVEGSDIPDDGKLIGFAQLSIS
T2 sequence (Q8N4C8 whole entry): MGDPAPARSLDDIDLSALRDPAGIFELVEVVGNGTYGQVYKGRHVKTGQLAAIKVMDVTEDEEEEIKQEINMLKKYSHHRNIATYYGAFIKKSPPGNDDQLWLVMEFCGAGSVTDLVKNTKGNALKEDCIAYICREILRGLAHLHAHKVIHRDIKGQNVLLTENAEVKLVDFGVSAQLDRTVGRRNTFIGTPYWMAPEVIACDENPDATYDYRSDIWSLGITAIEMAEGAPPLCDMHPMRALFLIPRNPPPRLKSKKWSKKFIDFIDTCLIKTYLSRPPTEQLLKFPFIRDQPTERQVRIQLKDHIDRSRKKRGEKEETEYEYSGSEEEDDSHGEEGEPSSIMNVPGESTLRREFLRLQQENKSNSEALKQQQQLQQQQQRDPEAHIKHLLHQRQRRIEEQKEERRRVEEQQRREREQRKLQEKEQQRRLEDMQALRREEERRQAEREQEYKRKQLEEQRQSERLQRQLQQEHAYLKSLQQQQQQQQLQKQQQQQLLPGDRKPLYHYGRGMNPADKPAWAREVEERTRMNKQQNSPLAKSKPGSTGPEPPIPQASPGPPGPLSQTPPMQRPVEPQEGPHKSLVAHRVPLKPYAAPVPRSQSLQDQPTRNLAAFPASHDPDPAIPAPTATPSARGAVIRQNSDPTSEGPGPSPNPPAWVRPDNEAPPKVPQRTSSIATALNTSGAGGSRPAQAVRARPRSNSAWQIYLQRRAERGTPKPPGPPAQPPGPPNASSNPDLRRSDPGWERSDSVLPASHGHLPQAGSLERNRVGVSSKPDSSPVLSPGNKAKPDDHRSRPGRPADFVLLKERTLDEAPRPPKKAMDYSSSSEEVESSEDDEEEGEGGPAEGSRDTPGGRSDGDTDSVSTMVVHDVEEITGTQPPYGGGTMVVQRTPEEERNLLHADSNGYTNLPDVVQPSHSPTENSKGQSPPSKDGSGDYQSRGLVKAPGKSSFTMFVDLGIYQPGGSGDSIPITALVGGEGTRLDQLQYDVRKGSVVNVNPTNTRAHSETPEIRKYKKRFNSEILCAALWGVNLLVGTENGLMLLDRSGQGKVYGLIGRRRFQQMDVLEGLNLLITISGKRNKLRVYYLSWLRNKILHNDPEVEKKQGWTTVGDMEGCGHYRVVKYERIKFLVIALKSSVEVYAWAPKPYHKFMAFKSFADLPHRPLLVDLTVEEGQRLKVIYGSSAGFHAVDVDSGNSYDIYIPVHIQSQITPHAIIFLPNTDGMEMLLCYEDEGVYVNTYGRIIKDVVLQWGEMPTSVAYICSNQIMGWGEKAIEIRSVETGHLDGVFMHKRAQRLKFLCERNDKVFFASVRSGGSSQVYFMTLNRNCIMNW

Cc1ccccc1-n1c(C(C)Nc2nc(N)nc3nc[nH]c23)nc2cccc(C)c2c1=O (stereo not drawn) [CAL-130]
100%: all assays above

Reference: patent publication US11969428B2, “Methods and pharmaceutical compositions for treating lymphoid malignancy” (priority 2011, dated 2024)
